Legend:
Test in all cases: relative viability (nuclei count vs DMSO), 5 days (fraction); higher = more cells survive
NCI-H1944 = system: NCI-H1944
Method in brief: (§1)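 Dosing by pin tool came one day after lung cancer cell lines were seeded in 1536-well plates, using either one drug or a fixed anchor-drug dose plus five library-drug doses (not always all listed) in √10 steps. After 5 days, nuclei were counted on 4× images. Relative viability is treated-well nuclei count divided by vehicle-well nuclei count, and values are medians of duplicate plates.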

NCI-H661 = system: NCI-H661
Method in brief: as §1

NCI-H441 = system: NCI-H441
Method in brief: as §1

LCLC-103H = system: LCLC-103H
Method in brief: as §1

NCI-H1355 = system: NCI-H1355
Method in brief: as §1

LXF-289 = system: LXF-289
Method in brief: as §1

NCI-H1993 = system: NCI-H1993
Method in brief: as §1

ChaGo-K-1 = system: ChaGo-K-1
Method in brief: as §1

LK-2 = system: LK-2
Method in brief: as §1

NCI-H727 = system: NCI-H727
Method in brief: as §1

NCI-H647 = system: NCI-H647
Method in brief: as §1

HCC-827 = system: HCC-827
Method in brief: as §1

NCI-H2170 = system: NCI-H2170
Method in brief: as §1

RERF-LC-KJ = system: RERF-LC-KJ
Method in brief: as §1

SK-MES-1 = system: SK-MES-1
Method in brief: as §1

BEN = system: BEN
Method in brief: as §1

NCI-H1666 = system: NCI-H1666
Method in brief: as §1

HOP-62 = system: HOP-62
Method in brief: as §1

EKVX = system: EKVX
Method in brief: as §1

LOU-NH91 = system: LOU-NH91
Method in brief: as §1

NCI-H1437 = system: NCI-H1437
Method in brief: as §1

NCI-H2126 = system: NCI-H2126
Method in brief: as §1

PC-14 = system: PC-14
Method in brief: as §1

## Cc1cn(-c2cc(NC(=O)c3ccc(C)c(Nc4nccc(-c5cccnc5)n4)c3)cc(C(F)(F)F)c2)cn1 [Nilotinib] + O=C(c1cc(Cc2n[nH]c(=O)c3ccccc23)ccc1F)N1CCN(C(=O)C2CC2)CC1 [Olaparib] (partner 8 µM)
NCI-H1944; first compound 0.001 µM
  relative viability: 0.379
NCI-H1944; first compound 0.003162 µM
  relative viability: 0.397
NCI-H1944; first compound 0.01 µM
  relative viability: 0.462
NCI-H1944; first compound 0.03162 µM
  relative viability: 0.435
NCI-H1944; first compound 0.1 µM
  relative viability: 0.45
NCI-H661; first compound 0.001 µM
  relative viability: 0.754
NCI-H661; first compound 0.003162 µM
  relative viability: 0.893
NCI-H661; first compound 0.01 µM
  relative viability: 0.949
NCI-H661; first compound 0.03162 µM
  relative viability: 0.672
NCI-H661; first compound 0.1 µM
  relative viability: 0.748
NCI-H441; first compound 0.001 µM
  relative viability: 0.419
NCI-H441; first compound 0.003162 µM
  relative viability: 0.807
NCI-H441; first compound 0.01 µM
  relative viability: 0.533
NCI-H441; first compound 0.03162 µM
  relative viability: 0.431
NCI-H441; first compound 0.1 µM
  relative viability: 0.534
LCLC-103H; first compound 0.001 µM
  relative viability: 0.761
LCLC-103H; first compound 0.003162 µM
  relative viability: 0.903
LCLC-103H; first compound 0.01 µM
  relative viability: 0.969
LCLC-103H; first compound 0.03162 µM
  relative viability: 0.749
LCLC-103H; first compound 0.1 µM
  relative viability: 0.8
NCI-H1355; first compound 0.001 µM
  relative viability: 0.748
NCI-H1355; first compound 0.003162 µM
  relative viability: 0.816
NCI-H1355; first compound 0.01 µM
  relative viability: 0.737
NCI-H1355; first compound 0.03162 µM
  relative viability: 0.785
NCI-H1355; first compound 0.1 µM
  relative viability: 0.763
LXF-289; first compound 0.001 µM
  relative viability: 1.07
LXF-289; first compound 0.003162 µM
  relative viability: 1.37
LXF-289; first compound 0.01 µM
  relative viability: 1.26
LXF-289; first compound 0.03162 µM
  relative viability: 1
LXF-289; first compound 0.1 µM
  relative viability: 1.06
NCI-H1993; first compound 0.001 µM
  relative viability: 0.957
NCI-H1993; first compound 0.003162 µM
  relative viability: 1.1
NCI-H1993; first compound 0.01 µM
  relative viability: 1.75
NCI-H1993; first compound 0.03162 µM
  relative viability: 1.01
NCI-H1993; first compound 0.1 µM
  relative viability: 1.23
ChaGo-K-1; first compound 0.001 µM
  relative viability: 0.419
ChaGo-K-1; first compound 0.003162 µM
  relative viability: 0.476
ChaGo-K-1; first compound 0.01 µM
  relative viability: 0.478
ChaGo-K-1; first compound 0.03162 µM
  relative viability: 0.464
ChaGo-K-1; first compound 0.1 µM
  relative viability: 0.412
LK-2; first compound 0.001 µM
  relative viability: 0.673
LK-2; first compound 0.003162 µM
  relative viability: 0.947
LK-2; first compound 0.01 µM
  relative viability: 0.839
LK-2; first compound 0.03162 µM
  relative viability: 0.453
LK-2; first compound 0.1 µM
  relative viability: 0.681
NCI-H727; first compound 0.001 µM
  relative viability: 0.574
NCI-H727; first compound 0.003162 µM
  relative viability: 0.847
NCI-H727; first compound 0.01 µM
  relative viability: 0.658
NCI-H727; first compound 0.03162 µM
  relative viability: 0.732
NCI-H727; first compound 0.1 µM
  relative viability: 0.732
NCI-H647; first compound 0.001 µM
  relative viability: 0.527
NCI-H647; first compound 0.003162 µM
  relative viability: 0.735
NCI-H647; first compound 0.01 µM
  relative viability: 0.649
NCI-H647; first compound 0.03162 µM
  relative viability: 0.482
NCI-H647; first compound 0.1 µM
  relative viability: 0.544
HCC-827; first compound 0.001 µM
  relative viability: 0.637
HCC-827; first compound 0.003162 µM
  relative viability: 0.741
HCC-827; first compound 0.03162 µM
  relative viability: 0.49
HCC-827; first compound 0.1 µM
  relative viability: 0.689
NCI-H2170; first compound 0.001 µM
  relative viability: 0.597
NCI-H2170; first compound 0.003162 µM
  relative viability: 0.662
NCI-H2170; first compound 0.01 µM
  relative viability: 0.647
NCI-H2170; first compound 0.03162 µM
  relative viability: 0.574
NCI-H2170; first compound 0.1 µM
  relative viability: 0.614
RERF-LC-KJ; first compound 0.001 µM
  relative viability: 0.816
RERF-LC-KJ; first compound 0.003162 µM
  relative viability: 1.03
RERF-LC-KJ; first compound 0.01 µM
  relative viability: 0.976
RERF-LC-KJ; first compound 0.03162 µM
  relative viability: 0.826
RERF-LC-KJ; first compound 0.1 µM
  relative viability: 0.892
SK-MES-1; first compound 0.001 µM
  relative viability: 0.611
SK-MES-1; first compound 0.003162 µM
  relative viability: 0.696
SK-MES-1; first compound 0.01 µM
  relative viability: 0.778
SK-MES-1; first compound 0.03162 µM
  relative viability: 0.573
SK-MES-1; first compound 0.1 µM
  relative viability: 0.432
BEN; first compound 0.001 µM
  relative viability: 1.11
BEN; first compound 0.003162 µM
  relative viability: 1.1
BEN; first compound 0.01 µM
  relative viability: 1.25
BEN; first compound 0.03162 µM
  relative viability: 0.996
BEN; first compound 0.1 µM
  relative viability: 1
NCI-H1666; first compound 0.001 µM
  relative viability: 0.71
NCI-H1666; first compound 0.003162 µM
  relative viability: 0.805
NCI-H1666; first compound 0.01 µM
  relative viability: 0.803
NCI-H1666; first compound 0.03162 µM
  relative viability: 0.778
NCI-H1666; first compound 0.1 µM
  relative viability: 0.754
HOP-62; first compound 0.003162 µM
  relative viability: 0.38
HOP-62; first compound 0.01 µM
  relative viability: 0.393
HOP-62; first compound 0.03162 µM
  relative viability: 0.403
HOP-62; first compound 0.1 µM
  relative viability: 0.352
EKVX; first compound 0.001 µM
  relative viability: 0.735
EKVX; first compound 0.003162 µM
  relative viability: 1.08
EKVX; first compound 0.01 µM
  relative viability: 1.23
EKVX; first compound 0.03162 µM
  relative viability: 0.834
EKVX; first compound 0.1 µM
  relative viability: 1.07
LOU-NH91; first compound 0.001 µM
  relative viability: 0.877
LOU-NH91; first compound 0.003162 µM
  relative viability: 1.05
LOU-NH91; first compound 0.01 µM
  relative viability: 1.09
LOU-NH91; first compound 0.03162 µM
  relative viability: 0.94
LOU-NH91; first compound 0.1 µM
  relative viability: 0.997
NCI-H1437; first compound 0.001 µM
  relative viability: 0.603
NCI-H1437; first compound 0.003162 µM
  relative viability: 0.687
NCI-H1437; first compound 0.01 µM
  relative viability: 0.654
NCI-H1437; first compound 0.03162 µM
  relative viability: 0.548
NCI-H1437; first compound 0.1 µM
  relative viability: 0.559
NCI-H2126; first compound 0.001 µM
  relative viability: 0.902
NCI-H2126; first compound 0.003162 µM
  relative viability: 1.03
NCI-H2126; first compound 0.01 µM
  relative viability: 1.11
NCI-H2126; first compound 0.03162 µM
  relative viability: 0.876
NCI-H2126; first compound 0.1 µM
  relative viability: 0.83
PC-14; first compound 0.001 µM
  relative viability: 0.266
PC-14; first compound 0.003162 µM
  relative viability: 0.253
PC-14; first compound 0.01 µM
  relative viability: 0.264
PC-14; first compound 0.03162 µM
  relative viability: 0.264
PC-14; first compound 0.1 µM
  relative viability: 0.339

— the supplement of paper PMC10307832
